Test results from ChEMBL document CHEMBL1147840, “Synthesis and bioactivity of 4-alkyl(aryl)thioquinazoline derivatives” (Bioorg Med Chem Lett, 2007).

What was measured:
Format in all cases: functional, cell-based
BGC-823 = test: Antitumor activity against human BGC823 cells by MTT method
PC-3 = test: Antitumor activity against human PC3 cells by MTT method
Bcap37 = test: Antitumor activity against human Bcap37 cells by MTT method

Row | SMILES | IC50 (BGC-823) [µM] | IC50 (PC-3) [µM] | IC50 (Bcap37) [µM]
1 | COc1cc(-c2nnc(Sc3ncnc4c(OC)c(OC)c(OC)cc34)s2)cc(OC)c1OC | 31.2 | 8.7 | 34.7
2 | CCCSc1ncnc2ccc(I)cc12 | 29 | 40.9 | 42.1
3 | C=CCSc1ncnc2ccc(I)cc12 | 33.2 | 28.8 | 39.1
4 | COc1cc2ncnc(Nc3cccc(Br)c3)c2cc1OC | 6.9 | 13.7 | 8.9
5 | COc1cc(-c2nnc(Sc3ncnc4ccccc34)s2)cc(OC)c1OC | 61.2 | 19 | 50.9
6 | CCCCSc1ncnc2ccc(I)cc12 | 29 | 32.1 | 31
7 | COc1cccc(Sc2ncnc3c(OC)c(OC)c(OC)cc23)c1 | 53.2 | 8.1 | 45.6
8 | COc1cc(-c2nnc(Sc3ncnc4ccc(I)cc34)s2)cc(OC)c1OC | 19 | 12.2 | 21
9 | COc1cc(-c2nnc(Sc3ncnc4ccc(I)cc34)o2)cc(OC)c1OC | 28.9 | 8.9 | 31

Continued by falling IC50 (BGC-823), values first:

Row | IC50 (BGC-823) [µM] | IC50 (PC-3) [µM] | SMILES | IC50 (Bcap37) [µM]
10 | 78.1 | 48 | C=CCSc1ncnc2ccccc12 | 67.9
11 | 45.6 | 23.1 | COc1cccc(Sc2ncnc3ccccc23)c1 | 56.7
12 | 39 | 1.8 | COc1cc(-c2nnc(Sc3ncnc4c(OC)c(OC)c(OC)cc34)o2)cc(OC)c1OC | 20.9
13 | 34.5 | 5.6 | COc1cc(-c2nnc(Sc3ncnc4ccccc34)o2)cc(OC)c1OC | 23.4
14 | 31.1 | 38.9 | CCSc1ncnc2ccc(I)cc12 | 39
